Measured values taken from patent US8318504B2, “MRP2 efflux pathway prognostic method” (priority 2009, dated 2012).

Key:
ABCC2 = target: T1, ABCC2 (Homo sapiens, UniProt Q92887); test: ATP-dependent transport of CLF into Sf21 membrane vesicles containing ABCC2; type: biochemical; parameters: Vmax of ABCC2 mediated transport of CLF: unit not given here
T1 construct: made in house; host or cells: Sf21 insect cells, baculovirus; plasma membrane vesicles
Description: The production of recombinant baculovirus was as described by de Waart et al. [Liver Int 2006 April; 26(3):362-368]. ABCC3 and ABCG2-recombinant baculovirus were a kind gift from Borst [Breedveld P. et al., Cancer Res 2004 Aug. 15; 64(16):5804-5811 and Borst P. et al., J Biol Chem 2001 Dec. 7; 276(49):46400-46407.]. ABCB11-recombinant baculovirus was a kind gift from Thompson [Thompson R J et al., Gastroenterology 2002 November; 123(5):1649-1658]. Sf21 cells grown at 27° C. were infected with ABCB11, ABCC2, ABCC3 and ABCG2-cDNA containing baculovirus. Cells were harvested at 2-4 days after infection. Membrane vesicle preparation was as described by de Waart et al. [Liver Int 2006 April; 26(3):362-368].
Transport studies with membrane vesicles were performed using the rapid filtration technique as described by Heijn M et al. [Am J Physiol 1992 January; 262(1 Pt 1):C104-C110]. Radiolabel was measured with a scintillation counter. When CLF was used as a probe, filters were placed in a glass tube, 0.1% Triton-X-100 was added and the tubes vortexed. Samples were pipetted in 96-well plates (Kartell, Noviglio, Italy) and the amount CLF quantitated by measurement of fluorescence at λexe 485 nm and λcm 520 nm using a NovoStar (BMG-labtech, Offenburg, Germany). […]

Abcc2 and Abcc3 = test: Plasma clearance of CLF in wild type, Abcc2-/- and Abcc3-/- mice; type: in vivo; conditions: single injection of 100 μL 2 mmol/L CLF in the tail vein
Description: Wild type, Abcc3^−/− and Abcc2^−/− mice received 100 μL of 2 mmol/L CLF by injection in the tail vein. After the indicated time points blood was drawn. Data are expressed as the mean percentage of the initial CLF level at 2 minutes. Significance was tested using two-sided Student's t-test: *P<0.05 for Abcc2−/− vs wild type mice.
Abcc2^−/− mice (against a Friend virus B-type (FVB) background) were bred at the National Cancer Institute (Amsterdam, The Netherlands). Production and characterization of the Abcc2^−/− mice was as described by Vlaming et al. [J Pharmacol Exp Ther 2006 July; 318(1):319-327]. Wild type and Abcc3^−/− mice (against an FVB background) were bred at the animal institute of the Academic Medical Center. Production and characterization of the Abcc3^−/− mice was as described by Zelcer et al. [J Hepatol 2006 April; 44(4):768-775].
Male mice were housed in a pathogen-free animal facility on a 12 hours light-dark cycle. Mice were anesthetized with a combination of Hypnorm (VetaPharma, UK; 11.8 mg/kg fluanisone and 0.37 mg/kg fentanyl-citrate) and diazepam (Centrafarm, Etten-Leur, The Netherlands; 5.9 mg/kg valium). Body temperature was maintained at 36±1° C. on thermostatted heating pads. […] Blood samples were deproteinised by addition of two volumes methanol and the amount CLF in the supernatant was quantitated by measurement of fluorescence as described above.

T1 sequence (Q92887 whole entry): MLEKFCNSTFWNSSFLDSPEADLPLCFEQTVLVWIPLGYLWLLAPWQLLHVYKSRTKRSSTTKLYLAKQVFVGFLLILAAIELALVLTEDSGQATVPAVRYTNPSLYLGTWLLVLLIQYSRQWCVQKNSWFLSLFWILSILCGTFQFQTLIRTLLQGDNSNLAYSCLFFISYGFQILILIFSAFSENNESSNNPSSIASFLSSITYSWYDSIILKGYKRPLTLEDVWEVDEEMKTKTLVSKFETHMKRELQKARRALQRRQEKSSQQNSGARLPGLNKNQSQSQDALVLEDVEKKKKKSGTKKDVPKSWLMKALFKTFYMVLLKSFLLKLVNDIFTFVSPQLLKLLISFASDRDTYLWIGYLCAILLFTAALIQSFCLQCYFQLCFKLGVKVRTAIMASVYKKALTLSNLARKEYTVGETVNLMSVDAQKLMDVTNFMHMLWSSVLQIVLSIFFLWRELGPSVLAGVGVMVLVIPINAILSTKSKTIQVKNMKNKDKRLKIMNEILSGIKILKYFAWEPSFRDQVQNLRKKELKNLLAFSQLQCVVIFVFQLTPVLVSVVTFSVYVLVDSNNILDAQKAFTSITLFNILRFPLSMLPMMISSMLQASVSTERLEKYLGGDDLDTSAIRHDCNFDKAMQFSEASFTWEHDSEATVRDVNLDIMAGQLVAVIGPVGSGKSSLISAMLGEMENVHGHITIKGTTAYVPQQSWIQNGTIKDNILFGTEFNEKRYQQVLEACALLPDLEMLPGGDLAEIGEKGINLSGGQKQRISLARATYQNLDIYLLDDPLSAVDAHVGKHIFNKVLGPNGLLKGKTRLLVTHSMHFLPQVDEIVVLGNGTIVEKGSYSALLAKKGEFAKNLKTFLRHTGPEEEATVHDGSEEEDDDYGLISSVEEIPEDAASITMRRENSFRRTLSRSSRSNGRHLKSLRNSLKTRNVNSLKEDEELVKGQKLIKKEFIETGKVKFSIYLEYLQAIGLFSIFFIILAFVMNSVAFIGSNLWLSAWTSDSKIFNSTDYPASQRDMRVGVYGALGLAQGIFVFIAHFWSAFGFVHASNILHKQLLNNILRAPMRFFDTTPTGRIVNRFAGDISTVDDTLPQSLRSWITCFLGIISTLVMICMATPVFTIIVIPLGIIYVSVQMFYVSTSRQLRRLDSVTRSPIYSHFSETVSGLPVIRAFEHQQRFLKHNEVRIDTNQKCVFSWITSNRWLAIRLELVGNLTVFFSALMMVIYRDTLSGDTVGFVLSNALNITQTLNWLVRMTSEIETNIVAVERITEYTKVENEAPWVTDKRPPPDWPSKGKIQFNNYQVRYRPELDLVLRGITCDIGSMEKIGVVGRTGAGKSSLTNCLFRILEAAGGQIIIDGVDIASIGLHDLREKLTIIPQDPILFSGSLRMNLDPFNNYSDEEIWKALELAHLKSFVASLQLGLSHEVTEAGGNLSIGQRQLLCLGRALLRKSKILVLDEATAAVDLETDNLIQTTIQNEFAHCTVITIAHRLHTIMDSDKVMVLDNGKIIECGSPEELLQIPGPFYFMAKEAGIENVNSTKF

Structure (SMILES): CC(CCC(=O)NC(CCCCNC(=S)Nc1ccc(-c2c3ccc(=O)cc-3oc3cc(O)ccc23)c(C(=O)O)c1)C(=O)O)C1CCC2C3C(O)CC4CC(O)CCC4(C)C3CC(O)C12C (stereo not shown) [CLF, cholyl lysyl fluorescein]
- Vmax of ABCC2 mediated transport of CLF (ABCC2; 10 μg total protein, presence or absence of 4 mmol/L ATP): 436±215
- CLF transport in ABCC2 containing membrane vesicles (ABCC2; compared to control wild type Sf21 membrane vesicles): much higher CLF transport rates
- Plasma clearance of CLF in Abcc2-/- mice in comparison with wild type mice (Abcc2 and Abcc3): strongly impaired
- Plasma clearance of CLF in Abcc3-/- mice in comparison with wild type mice (Abcc2 and Abcc3): not affected
